Each block holds one molecule with its values, some of them ahead of it. Calls of active or inactive are those of the source.
Assays:
[1] = Trypanosoma cruzi growth suppression in host cells – NIH3T3 host cells, beta-gal luminescence, confirmation (AID 2044); type: functional, cell-based;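 note: intracellular parasites grown in NIH/3T3 mouse fibroblasts as host cells; luminescent beta-galactosidase reporter signal from transgenic T. cruzi replicating inside host cells; inhibitors lower the luminescence signal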
[2] = NIH3T3 cell viability loss – ATP luminescence, mouse fibroblasts, counter-screen, dose response (AID 2010); type: functional, cell-based;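 note: cells exposed to compound for about 90 hours before reading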
[3] = target: T1, Rac GTPase-activating protein 1 (Homo sapiens, UniProt Q9H0H5); experiment: blockers of MgcRacGAP-driven Rac1 GTP hydrolysis – biochemical, ADP Hunter fluorescence, primary and confirmatory, confirmation (AID 624330); type: functional
T1 sequence (Q9H0H5 whole entry): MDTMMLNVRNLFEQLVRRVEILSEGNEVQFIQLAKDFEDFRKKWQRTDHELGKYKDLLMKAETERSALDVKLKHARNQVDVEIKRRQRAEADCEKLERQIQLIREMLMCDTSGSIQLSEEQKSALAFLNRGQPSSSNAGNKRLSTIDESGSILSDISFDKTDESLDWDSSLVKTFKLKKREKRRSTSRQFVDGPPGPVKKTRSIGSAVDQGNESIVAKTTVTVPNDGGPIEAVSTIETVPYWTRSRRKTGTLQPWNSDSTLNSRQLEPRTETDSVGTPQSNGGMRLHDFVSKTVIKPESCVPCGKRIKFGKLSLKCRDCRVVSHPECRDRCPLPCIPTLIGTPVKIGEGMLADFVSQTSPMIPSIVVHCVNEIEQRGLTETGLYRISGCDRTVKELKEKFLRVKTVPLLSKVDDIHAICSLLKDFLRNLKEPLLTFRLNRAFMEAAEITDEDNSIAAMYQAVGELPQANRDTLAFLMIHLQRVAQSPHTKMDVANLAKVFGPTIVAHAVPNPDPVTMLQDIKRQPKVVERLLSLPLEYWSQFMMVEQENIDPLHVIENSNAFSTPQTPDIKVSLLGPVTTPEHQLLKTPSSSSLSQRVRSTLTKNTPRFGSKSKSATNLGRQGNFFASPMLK

[4] = target: T2, DNA repair protein RAD52 homolog (Homo sapiens, UniProt P43351); type: functional, biochemical
T2 sequence (P43351 whole entry): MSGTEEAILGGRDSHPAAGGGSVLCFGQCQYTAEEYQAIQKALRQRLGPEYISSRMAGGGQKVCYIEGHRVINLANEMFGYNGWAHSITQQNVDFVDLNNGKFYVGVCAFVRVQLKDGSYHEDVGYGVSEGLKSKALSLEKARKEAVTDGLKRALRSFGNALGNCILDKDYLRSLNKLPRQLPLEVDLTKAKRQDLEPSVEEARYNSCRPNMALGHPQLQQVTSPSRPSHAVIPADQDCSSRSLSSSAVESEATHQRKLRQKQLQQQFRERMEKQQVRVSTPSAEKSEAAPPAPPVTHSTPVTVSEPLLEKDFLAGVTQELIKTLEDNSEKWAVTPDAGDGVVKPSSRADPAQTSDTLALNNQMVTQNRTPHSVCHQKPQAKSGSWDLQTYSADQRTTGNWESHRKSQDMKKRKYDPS

[5] = target: T3, Histone-lysine N-methyltransferase NSD2 (Homo sapiens, UniProt O96028); type: biochemical
T3 sequence (O96028 whole entry): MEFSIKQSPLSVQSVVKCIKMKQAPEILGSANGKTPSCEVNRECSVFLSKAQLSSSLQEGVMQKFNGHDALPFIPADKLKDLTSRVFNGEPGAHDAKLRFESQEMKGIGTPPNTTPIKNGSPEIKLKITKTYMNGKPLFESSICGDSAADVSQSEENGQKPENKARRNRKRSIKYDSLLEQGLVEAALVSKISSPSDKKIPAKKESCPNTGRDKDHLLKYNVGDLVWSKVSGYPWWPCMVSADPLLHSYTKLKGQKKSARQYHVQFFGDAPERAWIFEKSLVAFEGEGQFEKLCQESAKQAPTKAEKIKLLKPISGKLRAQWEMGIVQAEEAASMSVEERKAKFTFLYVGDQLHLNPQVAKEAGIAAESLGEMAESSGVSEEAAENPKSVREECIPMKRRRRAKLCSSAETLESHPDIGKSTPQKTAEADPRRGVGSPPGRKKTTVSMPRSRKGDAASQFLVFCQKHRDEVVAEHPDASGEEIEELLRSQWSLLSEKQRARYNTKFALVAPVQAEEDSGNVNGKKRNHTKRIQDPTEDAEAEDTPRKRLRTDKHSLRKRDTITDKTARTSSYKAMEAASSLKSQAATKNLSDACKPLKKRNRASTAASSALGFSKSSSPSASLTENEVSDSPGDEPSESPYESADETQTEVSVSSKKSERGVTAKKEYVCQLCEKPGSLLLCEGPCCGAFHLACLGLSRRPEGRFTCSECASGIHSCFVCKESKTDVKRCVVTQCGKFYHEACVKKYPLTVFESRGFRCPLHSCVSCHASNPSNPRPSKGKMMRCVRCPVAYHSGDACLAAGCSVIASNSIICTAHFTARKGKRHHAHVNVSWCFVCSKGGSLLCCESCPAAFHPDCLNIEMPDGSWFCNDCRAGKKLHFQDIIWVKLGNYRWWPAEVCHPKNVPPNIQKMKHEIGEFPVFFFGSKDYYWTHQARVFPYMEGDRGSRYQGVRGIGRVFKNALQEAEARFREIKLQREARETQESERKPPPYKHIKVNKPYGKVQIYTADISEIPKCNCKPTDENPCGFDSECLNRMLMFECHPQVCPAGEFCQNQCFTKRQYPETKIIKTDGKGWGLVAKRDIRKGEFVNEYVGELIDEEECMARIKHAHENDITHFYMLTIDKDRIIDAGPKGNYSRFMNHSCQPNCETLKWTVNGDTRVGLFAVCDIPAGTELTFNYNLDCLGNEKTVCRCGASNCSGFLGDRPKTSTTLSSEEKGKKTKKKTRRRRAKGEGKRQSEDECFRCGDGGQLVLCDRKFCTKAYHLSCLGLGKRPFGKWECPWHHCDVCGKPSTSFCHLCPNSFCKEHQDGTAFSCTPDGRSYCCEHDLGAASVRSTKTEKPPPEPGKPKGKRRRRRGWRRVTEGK

Fatty acid synthase [6] = target: T4, Fatty acid synthase (Homo sapiens, UniProt P49327); experiment: inhibition of human FAS-TE enzyme activity – biochemical, endpoint fluorescence intensity, uHTS hits, dose response (AID 624327); type: functional;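 note: fluorescence from hydrolysis of an O-methyl fluorescein acyl ester substrate by the enzyme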
T4 sequence (P49327 whole entry): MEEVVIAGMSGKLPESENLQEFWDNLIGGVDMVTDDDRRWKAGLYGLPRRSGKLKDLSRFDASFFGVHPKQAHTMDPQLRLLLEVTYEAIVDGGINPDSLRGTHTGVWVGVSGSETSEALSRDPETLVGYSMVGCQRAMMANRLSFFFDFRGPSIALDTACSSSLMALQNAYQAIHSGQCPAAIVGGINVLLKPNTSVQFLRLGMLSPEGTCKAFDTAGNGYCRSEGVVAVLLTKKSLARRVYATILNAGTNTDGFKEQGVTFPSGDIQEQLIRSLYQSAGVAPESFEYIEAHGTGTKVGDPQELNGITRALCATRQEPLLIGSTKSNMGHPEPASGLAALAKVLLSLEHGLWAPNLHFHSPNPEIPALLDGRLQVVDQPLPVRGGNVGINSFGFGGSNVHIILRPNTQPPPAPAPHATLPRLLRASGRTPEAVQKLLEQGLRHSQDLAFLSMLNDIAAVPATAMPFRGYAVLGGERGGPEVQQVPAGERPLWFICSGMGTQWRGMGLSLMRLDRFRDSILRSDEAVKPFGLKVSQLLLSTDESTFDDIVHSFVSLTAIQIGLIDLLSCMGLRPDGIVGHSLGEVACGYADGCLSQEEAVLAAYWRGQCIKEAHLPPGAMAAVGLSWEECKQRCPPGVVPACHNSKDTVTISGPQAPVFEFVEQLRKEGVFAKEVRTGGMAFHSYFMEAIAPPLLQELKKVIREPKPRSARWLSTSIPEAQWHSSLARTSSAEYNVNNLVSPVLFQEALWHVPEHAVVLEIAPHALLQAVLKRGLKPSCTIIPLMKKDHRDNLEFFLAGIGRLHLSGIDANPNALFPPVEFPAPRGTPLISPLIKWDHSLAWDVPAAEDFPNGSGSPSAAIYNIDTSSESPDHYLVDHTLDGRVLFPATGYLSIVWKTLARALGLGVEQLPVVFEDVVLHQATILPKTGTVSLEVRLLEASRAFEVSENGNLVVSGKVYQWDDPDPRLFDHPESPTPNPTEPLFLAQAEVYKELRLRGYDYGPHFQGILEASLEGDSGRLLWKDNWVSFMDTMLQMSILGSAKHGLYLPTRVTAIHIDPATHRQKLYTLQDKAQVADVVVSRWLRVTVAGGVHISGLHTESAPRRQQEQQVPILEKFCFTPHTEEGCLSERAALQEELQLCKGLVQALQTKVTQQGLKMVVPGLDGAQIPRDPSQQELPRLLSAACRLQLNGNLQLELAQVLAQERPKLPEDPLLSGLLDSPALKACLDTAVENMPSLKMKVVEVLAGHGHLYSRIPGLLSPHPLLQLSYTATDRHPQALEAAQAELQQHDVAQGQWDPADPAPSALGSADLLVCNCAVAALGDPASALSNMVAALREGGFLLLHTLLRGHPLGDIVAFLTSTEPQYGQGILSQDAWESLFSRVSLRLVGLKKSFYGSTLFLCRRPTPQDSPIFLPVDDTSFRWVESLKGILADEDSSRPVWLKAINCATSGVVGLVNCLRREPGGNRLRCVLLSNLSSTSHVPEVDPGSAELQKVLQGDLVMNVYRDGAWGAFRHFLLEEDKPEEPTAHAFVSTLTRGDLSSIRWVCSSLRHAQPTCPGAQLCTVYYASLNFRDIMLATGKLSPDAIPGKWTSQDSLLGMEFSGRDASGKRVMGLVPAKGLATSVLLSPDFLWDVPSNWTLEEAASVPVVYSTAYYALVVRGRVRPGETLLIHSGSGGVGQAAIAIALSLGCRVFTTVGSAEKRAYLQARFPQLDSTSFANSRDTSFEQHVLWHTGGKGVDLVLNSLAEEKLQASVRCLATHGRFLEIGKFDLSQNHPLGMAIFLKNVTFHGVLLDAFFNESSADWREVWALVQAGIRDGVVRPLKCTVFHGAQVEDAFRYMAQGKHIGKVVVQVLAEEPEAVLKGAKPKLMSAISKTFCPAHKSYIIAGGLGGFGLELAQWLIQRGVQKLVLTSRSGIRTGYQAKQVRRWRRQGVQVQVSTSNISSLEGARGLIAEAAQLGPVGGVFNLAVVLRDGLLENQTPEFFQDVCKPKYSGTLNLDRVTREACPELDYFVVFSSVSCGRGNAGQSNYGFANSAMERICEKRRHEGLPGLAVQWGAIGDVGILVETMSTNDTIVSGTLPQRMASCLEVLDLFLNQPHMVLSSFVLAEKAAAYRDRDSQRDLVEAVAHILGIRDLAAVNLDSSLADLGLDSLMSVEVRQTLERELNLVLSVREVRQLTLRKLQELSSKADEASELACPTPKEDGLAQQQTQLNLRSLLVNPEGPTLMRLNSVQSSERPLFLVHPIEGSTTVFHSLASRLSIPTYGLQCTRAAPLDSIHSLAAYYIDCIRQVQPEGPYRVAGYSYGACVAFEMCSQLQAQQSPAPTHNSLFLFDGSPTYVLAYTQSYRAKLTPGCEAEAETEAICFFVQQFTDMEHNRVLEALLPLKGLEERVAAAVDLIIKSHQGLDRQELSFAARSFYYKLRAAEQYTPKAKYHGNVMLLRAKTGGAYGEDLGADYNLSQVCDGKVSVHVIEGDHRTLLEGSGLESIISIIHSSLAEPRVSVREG

Fatty acid synthase [7] = target: T4, Fatty acid synthase; experiment: inhibition of human FAS-TE enzyme activity – biochemical, kinetic fluorescence intensity, dose response (AID 624326); type: functional;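 note: rate of fluorescence rise from hydrolysis of a fluorogenic O-methyl fluorescein ester substrate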
cells [8] = type: functional, cell-based
[9] = target: T5, Nuclear receptor subfamily 0 group B member 1 (Homo sapiens, UniProt P51843); type: functional, cell-based;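 note: HEK293T cells transfected with SF-1 and DAX-1 plus StAR promoter luciferase reporter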
T5 sequence (P51843 whole entry): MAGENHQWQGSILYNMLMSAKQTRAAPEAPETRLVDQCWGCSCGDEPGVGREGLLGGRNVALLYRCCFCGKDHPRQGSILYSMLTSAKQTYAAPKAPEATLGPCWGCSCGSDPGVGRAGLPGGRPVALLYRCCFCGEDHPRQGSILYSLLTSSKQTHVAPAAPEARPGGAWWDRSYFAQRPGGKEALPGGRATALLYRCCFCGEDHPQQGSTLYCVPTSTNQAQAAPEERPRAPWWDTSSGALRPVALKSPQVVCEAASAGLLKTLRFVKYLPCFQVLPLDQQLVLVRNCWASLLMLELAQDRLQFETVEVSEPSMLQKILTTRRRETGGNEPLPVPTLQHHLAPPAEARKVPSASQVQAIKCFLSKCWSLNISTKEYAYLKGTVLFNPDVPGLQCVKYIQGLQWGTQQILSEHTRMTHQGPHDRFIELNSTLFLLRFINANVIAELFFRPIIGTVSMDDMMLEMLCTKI

[10] = target: T6, Heat shock factor protein 1 (Mus musculus, UniProt P38532); experiment: decrease of HSF1-responsive luciferase luminescence – cell-based, NIH3T3, dose retest, confirmation (AID 2382); type: functional;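 note: NIH3T3 fibroblasts with HSF1-driven luciferase reporter stressed by proteasome inhibitor MG132; luminescence from HSF1-driven luciferase expression after 8 hours of MG132 stress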
T6 sequence (P38532 whole entry): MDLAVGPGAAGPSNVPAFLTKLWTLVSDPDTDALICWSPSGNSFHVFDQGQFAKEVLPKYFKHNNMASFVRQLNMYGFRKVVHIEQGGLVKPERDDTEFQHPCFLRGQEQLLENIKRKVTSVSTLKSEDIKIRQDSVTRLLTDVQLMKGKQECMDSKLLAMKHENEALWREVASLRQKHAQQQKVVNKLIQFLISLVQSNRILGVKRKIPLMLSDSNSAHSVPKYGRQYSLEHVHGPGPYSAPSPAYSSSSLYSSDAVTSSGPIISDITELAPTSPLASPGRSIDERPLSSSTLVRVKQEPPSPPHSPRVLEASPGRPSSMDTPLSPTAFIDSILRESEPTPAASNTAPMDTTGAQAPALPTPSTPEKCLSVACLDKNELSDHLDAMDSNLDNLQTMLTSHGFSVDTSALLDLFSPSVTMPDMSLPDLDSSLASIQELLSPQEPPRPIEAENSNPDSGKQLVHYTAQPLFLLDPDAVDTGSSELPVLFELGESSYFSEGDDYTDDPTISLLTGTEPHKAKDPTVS

[11] = viability of PTEN-deleted HCT116 cells – cell-based, HCT116 PTEN knockout, dose response (AID 1047); type: functional;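 note: HCT116 colon tumor cells with PTEN knocked out; cells exposed to compound for 60 hours before readout; potency for loss of cell viability measured by luminescence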
Prothrombin = Prothrombin (Homo sapiens, UniProt P00734); experiment: Thrombin 1536 HTS Dose Response Confirmation. [Related pubchem assays: 1046 (Thrombin 1536 HTS; hits were confirmed in this assay)]; type: functional
[12] = viability of HCT116 lacking mutant beta-catenin – cell-based, human colon tumor, dose response (AID 1045); type: functional;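 note: HCT116 colon tumor cells with beta catenin knocked out; cells exposed to compound for 60 hours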
Kallikrein-7 = Kallikrein-7 (Homo sapiens, UniProt P49862); experiment: Fluorescence Intensity-based biochemical primary high throughput dose response assay to identify activators of kallikrein-7 (K7) zymogen.
Chain of Kallikrein-7 (P49862 whole entry): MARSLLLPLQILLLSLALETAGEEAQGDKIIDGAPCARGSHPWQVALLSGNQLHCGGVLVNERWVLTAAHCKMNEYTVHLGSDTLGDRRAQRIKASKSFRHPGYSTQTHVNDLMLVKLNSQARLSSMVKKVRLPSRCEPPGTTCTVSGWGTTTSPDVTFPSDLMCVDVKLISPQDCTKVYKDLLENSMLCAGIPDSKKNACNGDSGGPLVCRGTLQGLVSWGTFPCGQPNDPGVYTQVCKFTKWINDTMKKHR

[13] = viability of uninfected HEp-2 cells – cell-based, HTS, cytotoxicity control for RSV inhibitor project, dose response (AID 2410); type: functional; conditions: human respiratory syncytial virus
[14] = Luminescence Cell-Based Dose Retest to Confirm Inhibitors of Cancer Stem Cells. [Related pubchem assays (depositor defined):AID2717, AID2721]; type: functional; conditions: Homo sapiens
cells [15] = experiment: cells
[16] = general mammalian cell viability loss – inhibitor set, cherry-pick, set 2, cytotoxicity control for miR-122 modulator project, dose response (AID 720697); type: functional, cell-based

SMILES: C[n+]1ccc(/C=C/c2ccccc2O)c2ccccc21
EC50 [1]: 0.753 µM (active) | EC50 [2]: > 60 µM (not active) | IC50 [3]: 178 µM (active) | AC50 [4]: 19.1 µM (active) | AC50 [5]: > 20 µM (inactive)

SMILES: Cn1cccc1C(=O)NCC1COc2ccccc2O1 (stereo not given)
IC50 (cells [8]): > 67.5 µM (inactive) | IC50 [9]: > 67.5 µM (inactive)

SMILES: Cc1nn2c(NCCCN(C)C)c3c(nc2c1-c1ccccc1)CCC3
EC50 [1]: 0.625 µM (active) | EC50 [11]: 15.9 µM (active) | IC50 (Prothrombin): > 50 µM (not active) | EC50 [2]: > 60 µM (not active) | EC50 [12]: 15.9 µM (active)

SMILES: COc1ccc(N(C(=O)c2ccco2)S(=O)(=O)c2ccc(F)cc2)cc1
IC50 (Prothrombin): 17.5 µM (active)

SMILES: OCCCNc1cc(-c2ccccc2)nc2cc(-c3ccc(F)cc3)nn12
CC50 [13]: > 50 µM (active) | AC50 [14]: 6.05 µM (active) | IC50 (cells [15]): 22.4 µM (active)

SMILES: c1ccc(CCCNCCCn2cnc3c(OCc4ccccc4)ncnc32)cc1
AC50 [16]: 7.5 µM (active)

SMILES: COc1ccccc1C=C1CCc2ccccc2C1=O
IC50 (cells [8]): > 67.5 µM (inactive) | IC50 [9]: > 67.5 µM (inactive)

SMILES: COc1ccccc1-c1nnc2n1N=C(c1ccc3c(c1)OCO3)CS2
IC50 (cells [8]): > 67.6 µM (inactive) | IC50 [9]: > 67.6 µM (inactive)

SMILES: CO[C@@H]1CN(C)C(=O)c2cc(NC(=O)c3cccc(Oc4ccccc4)c3)ccc2OC[C@H](C)NC[C@@H]1C
AC50 [16]: 15.1 µM (active)

SMILES: COc1ccc2c(c1)CCC/C2=N\NC(=O)c1ccoc1C
IC50 (cells [8]): > 67.5 µM (inactive) | IC50 [9]: > 67.5 µM (inactive)

SMILES: CCOc1cc(-c2nccc3cc(OC)c(OC)cc23)cc(OCC)c1OCC [OCTAVERINE]
AC50 [16]: 1.89 µM (active)

Now from value to molecule:

IC50 (Fatty acid synthase [6]): 6.67 µM (active) | IC50 (Fatty acid synthase [7]): 4.57 µM (active)
SMILES: O=C(COC(=O)c1cc([N+](=O)[O-])ccc1NCCO)Nc1cccc(S(=O)(=O)N2CCCC2)c1

IC50 (Fatty acid synthase [6]): 12.2 µM (active) | IC50 (Fatty acid synthase [7]): 11.8 µM (active)
SMILES: CCCC(C)C(=O)Nc1cc([N+](=O)[O-])ccc1Cl (stereo not given)

EC50 [10]: > 195 µM (not active) | AC50 [4]: 8.66 µM (active)
SMILES: Cc1cc(-n2c(C)c3c(C)nnc(C)c3c2C)ccc1N

IC50 (Prothrombin): > 50 µM (not active)
SMILES: C=CCN(C(=O)Nc1ccc2c(c1)nc(C)n2C)c1ccccc1

EC50 (Kallikrein-7): > 69.5 µM (inactive)
SMILES: COc1ccc(-c2ccc3nnc(SCC(=O)N4CCCC4)n3n2)cc1

IC50 [3]: 64.3 µM (active) | AC50 [4]: 4.32 µM (active)
SMILES: CN1CCN(CCCNCc2cn(CCC#N)c3ccccc23)CC1

IC50 (Fatty acid synthase [6]): 15.8 µM (active) | IC50 (Fatty acid synthase [7]): 13.2 µM (active)
SMILES: Cc1cc(C(C)(C)C)cc(C)c1COC(=O)CN1C(=O)NC2(CCCC2)C1=O

EC50 (Kallikrein-7): 20.8 µM (inactive)
SMILES: COC(=O)c1ccc(C2C(C#N)=C(C)N=C3CC(C)(C)CC(O)=C32)cc1 (stereo not given)

IC50 (Prothrombin): > 50 µM (not active)
SMILES: CCC(C)NCCOc1cc(C)cc(C)c1C (stereo not given)

EC50 (Kallikrein-7): > 69.5 µM (inactive)
SMILES: N#Cc1c(NC(=O)COC(=O)c2nccnc2N)sc2c1CCCC2

— ChEMBL document CHEMBL1201862, “PubChem BioAssay data set” (2004)
